Source: US20250368614A1, “COMPOUNDS AND METHODS FOR YAP/TEAD MODULATION AND INDICATIONS THEREFOR” (OPNA BIO SA, priority 2023, published 2025)

Tested on: TEAD-dependent transcription (12XGTIIC TEAD response element luciferase reporter) in MSTO-211H cells
Assay: TEAD-dependent transcription cell-based luciferase reporter assay in MSTO-211H+12XGTIIC cells
Details: Homo sapiens; MSTO-211H+12XGTIIC reporter cells, 24 hours compound incubation, luminescence normalized to cell viability signal, geometric mean; read-out: MSTO-211H GMean IC50 (uM) Cell Assay Reporter Cell Variant: TEAD
Excerpt: Determine Inhibitor Activity Against TEAD-Dependent Transcription in a Cell-Based Reporter Assay
The human mesothelioma cell line MSTO-211H was stably transfected with a pGL4.21 plasmid containing a synthetic promoter with 12 copies of the GTIIC TEAD response element that drives the expression of a luciferase reporter gene^1 using Lipofectamine transfection reagent (Thermo Fisher). Transfected cells were selected using puromycin and single cell clones expressing this construct (referred to as MSTO-211H+12XGTIIC) were generated by limiting dilution. MSTO-211H cells was characterized by genetic alterations in key components of the Hippo pathway^2, resulting in up-regulation of YAP/TEAD-mediated transcription. […] To evaluate TEAD inhibitors, the MSTO-211H+12XGTIIC cell line was seeded in a 96-well plate in 50 μL of culture media at 1×10^4 cells per well and incubated at 37° C. overnight. Serial dilutions of compounds (in total volume of 50 μL of culture media) were added to the cells and incubated at 37° C. for 24 hours. Each plate included cells treated with DMSO as high controls and cells treated with 20 μM of the reference compound K-975 (a known TEAD inhibitor^3) as low controls. Cell viability was assayed by the addition of 25 μL of CellTiter-Fluor reagent (Promega) followed by a 30-minute incubation at 37° C. and quantification of the fluorescence signal (Ex400/Em505). Subsequently, luciferase expression was assayed by the addition of 25 μL of ONE-Glo reagent (Promega) followed by a 10-minute incubation at room temperature and quantification of the luminescence signal. The luminescence signal was normalized to the fluorescence signal to correct for any loss in cell viability over the 24-hour compound incubation period. The percentage of inhibition of normalized luminescence signal, indicative of compound-mediated inhibition of TEAD-dependent transcription, at individual compound concentrations relative to high and low controls was calculated. The data were analyzed by using nonlinear regression to generate IC50 values for individual compounds.

Compound | IC50
C=CC(=O)Nc1cccc(C(=O)N2CCc3c(cccc3N(C)c3ccc(C(F)(F)F)cc3)C2)n1 [Compound O-0018, N-(6-(5-(methyl(4-(trifluoromethyl)phenyl)amino)-1,2,3,4-tetrahydroisoquinoline-2-carbonyl)pyridin-2-yl)acrylamide] | 0.001 to 10 µM
O=C1NS(=O)(=O)c2cc(C(=O)N3CCc4c(cccc4Nc4ccc(C(F)(F)F)cc4)C3)ccc21 [Compound O-0199, 6-(5-((4-(trifluoromethyl)phenyl)amino)-1,2,3,4-tetrahydroisoquinoline-2-carbonyl)benzo[d]isothiazol-3(2H)-one 1,1-dioxide] | 0.001 to 10 µM
Cc1nc(CC(=O)N2CCc3c(cccc3Nc3ccc(C(F)(F)F)cc3)C2)co1 [Compound O-0005, 2-(2-methyloxazol-4-yl)-1-(5-((4-(trifluoromethyl)phenyl)amino)-3,4-dihydroisoquinolin-2(1H)-yl)ethan-1-one] | 0.001 to 10 µM
NC(=O)N1CCC(C(=O)N2CCc3c(cccc3Nc3ccc(C(F)(F)F)cc3)C2)C1 (stereo not shown) [Compound O-0057, 3-(5-((4-(trifluoromethyl)phenyl)amino)-1,2,3,4-tetrahydroisoquinoline-2-carbonyl)pyrrolidine-1-carboxamide] | 0.001 to 10 µM
O=C(CCS(=O)(=O)C(F)(F)F)N1CCc2cc(Nc3ccc(C(F)(F)F)cc3)ccc2C1 [Compound O-0205, 1-(6-((4-(trifluoromethyl)phenyl)amino)-3,4-dihydroisoquinolin-2(1H)-yl)-3-((trifluoromethyl)sulfonyl)propan-1-one] | 0.001 to 10 µM
O=C(Cc1cn[nH]c1)N1CCc2c(cccc2Nc2ccc(C(F)(F)F)cc2)C1 [Compound O-0026, 2-(1H-pyrazol-4-yl)-1-(5-((4-(trifluoromethyl)phenyl)amino)-3,4-dihydroisoquinolin-2(1H)-yl)ethan-1-one] | 0.001 to 10 µM
NC(=O)NCCC(=O)N1CCc2c(cccc2Nc2ccc(C(F)(F)F)cc2)C1 [Compound O-0056, 1-(3-oxo-3-(5-((4-(trifluoromethyl)phenyl)amino)-3,4-dihydroisoquinolin-2(1H)-yl)propyl)urea] | 0.001 to 10 µM
NC(=O)NCCC(=O)N1CCc2c(cccc2Nc2ccc(C(F)(F)F)cc2F)C1 [Compound O-0192, 1-(3-(5-((2-fluoro-4-(trifluoromethyl)phenyl)amino)-3,4-dihydroisoquinolin-2(1H)-yl)-3-oxopropyl)urea] | 0.001 to 10 µM
CS(=O)(=O)c1cccc(C(=O)N2CCc3c(cccc3Nc3ccc(C(F)(F)F)cc3)C2)c1 [Compound O-0202, (3-(methylsulfonyl)phenyl)(5-((4-(trifluoromethyl)phenyl)amino)-3,4-dihydroisoquinolin-2(1H)-yl)methanone] | 0.001 to 10 µM
C=CC(=O)Nc1cccc(C(=O)N2CCc3c(cccc3N(C)c3ccc(C(F)(F)F)cc3)C2)c1 [Compound O-0017, N-(3-(5-(methyl(4-(trifluoromethyl)phenyl)amino)-1,2,3,4-tetrahydroisoquinoline-2-carbonyl)phenyl)acrylamide] | 0.001 to 10 µM
Nc1cc(C(=O)N2CCc3c(cccc3Nc3ccc(C(F)(F)F)cc3)C2)ccn1 [Compound O-0032, (2-aminopyridin-4-yl)(5-((4-(trifluoromethyl)phenyl)amino)-3,4-dihydroisoquinolin-2(1H)-yl)methanone] | 0.001 to 10 µM
O=C1NC(=O)C(CC(=O)N2CCc3c(cccc3Nc3ccc(C(F)(F)F)cc3)C2)N1 (stereo not shown) [Compound O-0055, 5-(2-oxo-2-(5-((4-(trifluoromethyl)phenyl)amino)-3,4-dihydroisoquinolin-2(1H)-yl)ethyl)imidazolidine-2,4-dione] | 0.001 to 10 µM
C=CC(=O)Nc1ccc(C(=O)N2CCc3c(cccc3N(C)c3ccc(C(F)(F)F)cc3)C2)cc1 [Compound O-0019, N-(4-(5-(methyl(4-(trifluoromethyl)phenyl)amino)-1,2,3,4-tetrahydroisoquinoline-2-carbonyl)phenyl)acrylamide] | 0.001 to 10 µM
O=C(c1cccc2[nH]c(C(F)(F)F)nc12)N1CCc2c(cccc2Nc2ccc(C(F)(F)F)cc2)C1 [Compound O-0058, (2-(trifluoromethyl)-1H-benzo[d]imidazol-4-yl)(5-((4-(trifluoromethyl)phenyl)amino)-3,4-dihydroisoquinolin-2(1H)-yl)methanone] | 0.001 to 10 µM
N=C(N)N1CCC(C(=O)N2CCc3c(cccc3Nc3ccc(C(F)(F)F)cn3)C2)C1 (stereo not shown) [Compound O-0203, 3-(5-((5-(trifluoromethyl)pyridin-2-yl)amino)-1,2,3,4-tetrahydroisoquinoline-2-carbonyl)pyrrolidine-1-carboximidamide] | 0.001 to 10 µM
O=C(CCc1cnc[nH]1)N1CCc2c(cccc2Nc2ccc(C(F)(F)F)cc2)C1 [Compound O-0054, 3-(1H-imidazol-5-yl)-1-(5-((4-(trifluoromethyl)phenyl)amino)-3,4-dihydroisoquinolin-2(1H)-yl)propan-1-one] | 0.001 to 10 µM
C=CC(=O)Nc1cc(C(=O)N2CCc3c(cccc3Nc3ccc(C(F)(F)F)cc3)C2)ccn1 [Compound O-0038, N-(4-(5-((4-(trifluoromethyl)phenyl)amino)-1,2,3,4-tetrahydroisoquinoline-2-carbonyl)pyridin-2-yl)acrylamide] | 0.001 to 10 µM
CN(c1ccc(C(F)(F)F)cc1)c1ncnc2c1CCN(C(=O)CCS(=O)(=O)C(F)(F)F)C2 [Compound O-0025, 1-(4-(methyl(4-(trifluoromethyl)phenyl)amino)-5,8-dihydropyrido[3,4-d]pyrimidin-7(6H)-yl)-3-((trifluoromethyl)sulfonyl)propan-1-one] | 0.001 to 10 µM
C=CC(=O)Nc1cccc(C(=O)N2CCc3c(cccc3Nc3ccc(C(F)(F)F)cc3)C2)n1 [Compound O-0035, N-(6-(5-((4-(trifluoromethyl)phenyl)amino)-1,2,3,4-tetrahydroisoquinoline-2-carbonyl)pyridin-2-yl)acrylamide] | 0.001 to 10 µM
CS(=O)(=O)c1nc(C(=O)N2CCc3c(cccc3Nc3ccc(C(F)(F)F)cc3)C2)c[nH]1 [Compound O-0045, (2-(methylsulfonyl)-1H-imidazol-4-yl)(5-((4-(trifluoromethyl)phenyl)amino)-3,4-dihydroisoquinolin-2(1H)-yl)methanone] | 0.001 to 10 µM
Cn1cncc1CC(=O)N1CCc2c(cccc2Nc2ccc(C(F)(F)F)cc2)C1 [Compound O-0002, 2-(1-methyl-1H-imidazol-5-yl)-1-(5-((4-(trifluoromethyl)phenyl)amino)-3,4-dihydroisoquinolin-2(1H)-yl)ethan-1-one] | 0.001 to 10 µM
O=C(Nc1ccccn1)N1CCC(C(=O)N2CCc3c(cccc3Nc3ccc(C(F)(F)F)cc3F)C2)C1 (stereo not shown) [Compound O-0095, 3-(5-((2-fluoro-4-(trifluoromethyl)phenyl)amino)-1,2,3,4-tetrahydroisoquinoline-2-carbonyl)-N-(pyridin-2-yl)pyrrolidine-1-carboxamide] | 0.001 to 10 µM
O=C(NC1CC1)N1CCC(C(=O)N2CCc3c(cccc3Nc3ccc(C(F)(F)F)cn3)C2)C1 (stereo not shown) [Compound O-0092, N-cyclopropyl-3-(5-((5-(trifluoromethyl)pyridin-2-yl)amino)-1,2,3,4-tetrahydroisoquinoline-2-carbonyl)pyrrolidine-1-carboxamide] | 0.001 to 10 µM
CN(c1ccc(C(F)(F)F)cc1)c1cccc2c1CCN(C(=O)c1cccc(N)c1)C2 [Compound O-0013, (3-aminophenyl)(5-(methyl(4-(trifluoromethyl)phenyl)amino)-3,4-dihydroisoquinolin-2(1H)-yl)methanone] | 0.001 to 10 µM
O=C(NCCC(=O)N1CCc2c(cccc2Nc2ccc(C(F)(F)F)cn2)C1)NC1CC1 [Compound O-0187, 1-cyclopropyl-3-(3-oxo-3-(5-((5-(trifluoromethyl)pyridin-2-yl)amino)-3,4-dihydroisoquinolin-2(1H)-yl)propyl)urea] | 0.001 to 10 µM
O=C(C1CCS(=O)(=O)CC1)N1CCc2cc(Nc3ccc(C(F)(F)F)cc3)ccc2C1 [Compound O-0208, (1,1-dioxidotetrahydro-2H-thiopyran-4-yl)(6-((4-(trifluoromethyl)phenyl)amino)-3,4-dihydroisoquinolin-2(1H)-yl)methanone] | 0.001 to 10 µM
O=C(NCCC(=O)N1CCc2c(cccc2Nc2ccc(C(F)(F)F)nc2)C1)NC1CC1 [Compound O-0195, 1-cyclopropyl-3-(3-oxo-3-(5-((6-(trifluoromethyl)pyridin-3-yl)amino)-3,4-dihydroisoquinolin-2(1H)-yl)propyl)urea] | 0.001 to 10 µM
Nc1cccc(C(=O)N2CCc3c(cccc3Nc3ccc(C(F)(F)F)cc3)C2)c1 [Compound O-0028, (3-aminophenyl)(5-((4-(trifluoromethyl)phenyl)amino)-3,4-dihydroisoquinolin-2(1H)-yl)methanone] | 10 to 100 µM
